Test results: patent US20120283428A1, “HYALURONIC ACID DERIVATIVE EFFECTIVE AGAINST ATOPIC DERMATITIS, AND METHOD FOR MANUFACTURING SAME” (CELLINBIO CO.,LTD, priority 2009, published 2012)

Tested on: PGE2
Assay: PGE2 level in LPS-stimulated macrophage cell-line, ELISA
Assay type: cell-based, mouse
Conditions: RAW 264.7, 500 ng/ml LPS, 10 mg/ml test substance, 24 hours, compared to control (FIG. 2)
Description: As a positive control, ascorbic acid (AA) and a mixture of hyaluronic acid and ascorbic acid (HA+AA) was used in this Example. PGE2 is a substance causing inflammation, edema, pain and fever in body. Microphage cell-line (RAW 264.7) was inoculated into medium containing DMEM (Dulbecco's modified Eagle's medium)/FBS (Fetal Bovine Serum) under a condition of […] of CO2 concentration at a temperature of 37° C. in order to culture the cell-line. […] The complete medium was cultured additionally for 24 hours, and then PGE2 level in supernatant of medium was assayed by ELISA (enzyme-linked Immunosorbent Assay) analysis. […] Each well was washed, and then substrate solution was added.

SMILES: O=C1O[C@H]([C@@H](O)CO)C(O)=C1O [AA, ascorbic acid]
- PGE2 level in supernatant of medium: decrease PGE2 significantly
